Experiment [1] is described as follows: Cytotoxicity against human A375P cells incubated for 72 hrs by MTT assay. It counts as functional, cell-based.
Experiment [2] is described as follows: Inhibition of autophagy in human A375P cells assessed as fold change in BNIP3 at 3 uM incubated for 24 hrs by immunoblot analysis relative to control. It counts as functional.
Experiment [3] in a line: Inhibition of autophagy in human A375P cells assessed as fold change in p62 at 3 uM incubated for 24 hrs by immunoblot analysis relative to control. It counts as functional.
Experiment [4] is described as follows: Inhibition of autophagy in human A375P cells assessed as fold change in LC3BII/ LC3BI ratio at 3 uM incubated for 24 hrs by immunoblot analysis relative to control. It counts as functional.
Experiment [5] in a line: Inhibition of autophagy in human A375P cells assessed as fold change in p-H2AX at 3 uM incubated for 24 hrs by immunoblot analysis relative to control. It counts as functional.
The nature of experiment [6]: Inhibition of autophagy in human A375P cells assessed as fold change in BNIP3 at 10 uM incubated for 24 hrs by immunoblot analysis relative to control. It counts as functional.
A short description of experiment [7]: Inhibition of autophagy in human A375P cells assessed as fold change in p62 at 10 uM incubated for 24 hrs by immunoblot analysis relative to control. It counts as functional.
Experiment [8] in a line: Inhibition of autophagy in human A375P cells assessed as fold change in LC3BII/ LC3BI ratio at 10 uM incubated for 24 hrs by immunoblot analysis relative to control. It counts as functional.
Experiment [9] can be described thus: Inhibition of autophagy in human A375P cells assessed as fold change in H2AX at 10 uM incubated for 24 hrs by immunoblot analysis relative to control. It counts as functional.

Molecule `CCOCCOCCN(CCNc1ccnc2cc(Cl)ccc12)CCNc1ccnc2cc(Cl)ccc12` came in with an IC50 in experiment [1] of 5990 nM.

In the case of `CCCCCCCCN(CCNc1ccnc2cc(Cl)ccc12)CCNc1ccnc2cc(Cl)ccc12`, the “fold change (FC)” value amounted to 5.9 in experiment [2], 4 in experiment [3] and 26 in [4]. The IC50 in [1] was 1280 nM.

In the case of `CCCCCCCCN(CCCCCCNc1ccnc2cc(Cl)ccc12)CCCCCCNc1ccnc2cc(Cl)ccc12`, the “fold change (FC)” value in experiment [2] amounted to 0.7; in experiment [3], 1.6; in experiment [4] it was 27. This molecule also returned an IC50 in experiment [1] of 420 nM.

Take `CN(CCCCCCNc1ccnc2cc(Cl)ccc12)CCCCCCNc1ccnc2cc(Cl)ccc12`: the “fold change (FC)” value in [2] is recorded as 3.2; in experiment [3], 1.8; in [4], 24; in [5] it was 4.7. The IC50 in experiment [1] worked out at 490 nM.

For `Clc1ccc2c(NCCCCCCNCCCCCCNc3ccnc4cc(Cl)ccc34)ccnc2c1`, the “fold change (FC)” value worked out at 1.3 in experiment [2], 1.1 in experiment [3], 15.2 in experiment [4] and 20.8 in experiment [5].

In [1], `CN(C)CCN(CCNc1ccnc2cc(Cl)ccc12)CCNc1ccnc2cc(Cl)ccc12` returned an IC50 of 4600 nM. The “fold change (FC)” value in [6] worked out at 1.7; in [7] it was 0.8; in experiment [8] it was 4.8; in [9], 3.

In experiment [1], `CNCCN(CCNc1ccnc2cc(Cl)ccc12)CCNc1ccnc2cc(Cl)ccc12` came in with an IC50 of 13000 nM. Also, the “fold change (FC)” value was determined as 0.4 in experiment [6], 0.6 in experiment [7], 0.8 in [8] and 1.4 in experiment [9].

Regarding `NCCN(CCNc1ccnc2cc(Cl)ccc12)CCNc1ccnc2cc(Cl)ccc12`, the IC50 in experiment [1] was 12300 nM. Besides, the “fold change (FC)” value in [6] worked out at 0.7; in experiment [7], 0.5; in [8] it was 1; in experiment [9], 1.4.

Consider `CCOCCOCCN(CCCCCCNc1ccnc2cc(Cl)ccc12)CCCCCCNc1ccnc2cc(Cl)ccc12`, for which the results for the “fold change (FC)” value in experiment [2], in [3] and in experiment [4] were 5.1, 2.7 and 28, respectively. Also, in experiment [1], the IC50 worked out at 650 nM.
